Experimental findings from patent publication US20080176255A1, “Mold detection composition and methods” (priority 2007, published 2008) are described below.

This data set in a line: Solubility in distilled water. The format is physicochemical. The text has this: In one embodiment, the compositions described herein may further comprise a solvent; a gelling agent; and a diluent.

Structures can show the parent of a compound that is named as a salt.

As a reminder, the solubility is the concentration that dissolves in the medium under given conditions. A lower solubility goes with little dissolved substance. For the compound `O=S(=O)(O)c1ccccc1C=Cc1ccc(-c2ccc(C=Cc3ccccc3S(=O)(=O)O)cc2)cc1` [BBD, 2,2′-([1,1′-Biphenyl]-4,4′-diyldi-2,1-ethenediyl)bis-benzenesulfonic acid disodium salt], the solubility by setting is: (at 25° C.) 25 mg/mL; (at 95° C.) 300 mg/mL.
